Test results: paper PMC10766962 (Nature Communications, 2024)
Values joined by “and” are separate entries in the source; they are usually repeats but may differ in a detail not shown here. Identical values can stand only once. “Also recorded” adds a separate entry of the source. Like-named read-outs stand apart in the source and are kept apart here. Positions of bridges follow the written chain, without caps; N, C: chain ends. Non-standard residues stand in square brackets, D forms with d. Residues, ends and D or L forms follow the SMILES beside them. Groups on a side chain read outwards from the residue. *: point of attachment. Acetyl(2-S-cholesteryl) = CC(C)CCC[C@@H](C)[C@H]1CC[C@H]2[C@@H]3CC=C4C[C@@H](SCC(=O)*)CC[C@]4(C)[C@H]3CC[C@]12C; R8 = C=CCCCCCC[C@@](C)(N)C(=O)O; PEG4 = NCCOCCOCCOCCOCCC(=O)O; S5 = C=CCCC[C@](C)(N)C(=O)O; Nle = CCCC[C@H](N)C(=O)O

Tests used:
[1] = biological target: SARS-CoV-2 5-helix bundle (5-HB) protein (Severe acute respiratory syndrome coronavirus 2, UniProt P0DTC2); assay: biochemical; format: binding
[2] = tested on: SARS-CoV-2 WA-1 (Wuhan) isolate; parameters: species or system Syrian (Golden) hamsters; settings: hamster, in vivo
[3] = format: physicochemical; settings: pH 7.4
in vivo [4] = settings: male, Syrian (Golden), hamster, inhaled or intranasal, 2.5 mg/kg, Nasal Tissue
[5] = tested on: SARS-CoV-2 Delta B.1.617.2 live virus
[6] = format: physicochemical; settings: pH 7.5
[7] = tested on: SARS-CoV-2 B.1.617.2 pseudovirus
in vivo [8] = settings: male, C57BL/6, mouse, inhaled or intranasal
[9] = format: physicochemical
[10] = mouse, in vivo
[11] = tested on: SARS-CoV-2 Beta B.1.351 live virus
[12] = tested on: SARS-CoV-2 B.1.1.529.1 pseudovirus
[13] = tested on: SARS-CoV-2 WA-1 (Wuhan) isolate; parameters: species or system Syrian (Golden) hamsters; settings: hamster, in vivo; remark: listed apart in the source
[14] = 1 mg/kg, RQ-01 Nasal Tissue Concentration
[15] = 3 mg/kg, RQ-01 Nasal Tissue Concentration
[16] = 10 mg/kg, RQ-01 Nasal Tissue Concentration

For CC[C@H](C)[C@H](NC(=O)CNC(=O)[C@H](CO)NC(=O)[C@@H](NC(=O)[C@H](CC(=O)O)NC(C)=O)[C@@H](C)CC)C(=O)N[C@@H](CC(N)=O)C(=O)N[C@@H](C)C(=O)N[C@@H](CO)C(=O)N[C@H](C(=O)N[C@H](C(=O)N[C@@H](CC(N)=O)C(=O)N[C@H](C(=O)N[C@]1(C)CCCCCCC=CCCC[C@@](C)(C(=O)N[C@@H](CCC(=O)O)C(=O)N[C@H](C(=O)N[C@@H](C)C(=O)N[C@@H](CCCCN)C(=O)N[C@@H](CC(N)=O)C(=O)N[C@@H](CC(C)C)C(=O)N[C@@H](CC(N)=O)C(=O)N[C@@H](CCC(=O)O)C(=O)N[C@@H](CO)C(=O)N[C@@H](CC(C)C)C(=O)N[C@H](C(=O)N[C@@H](CC(=O)O)C(=O)N[C@@H](CC(C)C)C(=O)N[C@@H](CCC(N)=O)C(=O)N[C@@H](CCC(=O)O)C(=O)N[C@@H](CC(C)C)C(=O)NCC(=O)N[C@@H](CCCCN)C(N)=O)[C@@H](C)CC)C(C)C)NC(=O)[C@H](CC(C)C)NC(=O)[C@H](CCCNC(=N)N)NC(=O)[C@H](CC(=O)O)NC(=O)[C@H]([C@@H](C)CC)NC(=O)[C@H](CCC(=O)O)NC(=O)[C@H](CCCCN)NC1=O)[C@@H](C)CC)C(C)C)C(C)C [RQ-01 (- linker-lipid)], which “improvement of affinity compared to the unstapled HR2 peptide” value [1] is on record?
Its value is 7.5 fold.

Which results are given for CC[C@H](C)[C@H](NC(=O)CNC(=O)[C@H](CO)NC(=O)[C@@H](NC(=O)[C@H](CC(=O)O)NC(C)=O)[C@@H](C)CC)C(=O)N[C@@H](CC(N)=O)C(=O)N[C@@H](C)C(=O)N[C@@H](CO)C(=O)N[C@H](C(=O)N[C@H](C(=O)N[C@@H](CC(N)=O)C(=O)N[C@H](C(=O)N[C@]1(C)CCCCCCC=CCCC[C@@](C)(C(=O)N[C@@H](CCC(=O)O)C(=O)N[C@H](C(=O)N[C@@H](C)C(=O)N[C@@H](CCCCN)C(=O)N[C@@H](CC(N)=O)C(=O)N[C@@H](CC(C)C)C(=O)N[C@@H](CC(N)=O)C(=O)N[C@@H](CCC(=O)O)C(=O)N[C@@H](CO)C(=O)N[C@@H](CC(C)C)C(=O)N[C@H](C(=O)N[C@@H](CC(=O)O)C(=O)N[C@@H](CC(C)C)C(=O)N[C@@H](CCC(N)=O)C(=O)N[C@@H](CCC(=O)O)C(=O)N[C@@H](CC(C)C)C(=O)NCC(=O)N[C@@H](CCCCNC(=O)CCOCCOCCOCCOCCOCCOCCOCCOCCNC(=O)CO[C@H]2CC[C@@]3(C)C(=CC[C@H]4[C@@H]5CC[C@H]([C@H](C)CCCC(C)C)[C@@]5(C)CC[C@@H]43)C2)C(N)=O)[C@@H](C)CC)C(C)C)NC(=O)[C@H](CC(C)C)NC(=O)[C@H](CCCNC(=N)N)NC(=O)[C@H](CC(=O)O)NC(=O)[C@H]([C@@H](C)CC)NC(=O)[C@H](CCC(=O)O)NC(=O)[C@H](CCCCN)NC1=O)[C@@H](C)CC)C(C)C)C(C)C [RQ-01]?
OP swab titer [2]: 10-20 PFUs; lung histopathology (pneumonia global severity score, total lung score) [2]: significant protection from the pulmonary sequelae of SARS-CoV-2 infection; viral shedding by OP swab [2]: significantly reduced; weight loss [2]: significant protective effect from weight loss; also recorded: protection from weight loss was also observed; elution by fast protein liquid chromatography [3]: eluted as a monodispersed peak; level at time molar at 4 h (in vivo [4]; RQ-01 tissue concentration): 23.2 µM; level at time molar at 4 h (in vivo [4]; pH 6.5, RQ-01 tissue concentration): 28.8 µM; fold by which RQ-01 outperformed SARSHRC-PEG4-chol [5]: 5.4 fold; cytotoxicity (A549-ACE2 cells): no cytotoxicity; circular dichroism analysis [6]: exhibited α-helical character; fold by which RQ-01 outperformed SARSHRC-PEG4-chol [7]: 4.7 fold; level at time molar at 2 h (in vivo [8]; [14]): 16.2 µM; level at time molar at 4 h (in vivo [8]; [14]): 22.5 µM; level at time molar at 7 h (in vivo [8]; 1 mg/kg, RQ-01 Tissue Concentration): 0.064 µM; level at time molar (in vivo [8]; 2 mg/kg, pH 7.2, nasal tissue level, start): 10 µM; level at time molar at 2 h (in vivo [8]; [15]): 27.5 µM; level at time molar at 4 h (in vivo [8]; [15]): 28.1 µM; level at time molar at 7 h (in vivo [8]; [15]): 26.4 µM; level at time molar at 24 h (in vivo [8]; [15]): 18.7 µM; level at time molar at 2 h (in vivo [8]; [16]): 73 µM; level at time molar at 4 h (in vivo [8]; [16]): 44.9 µM; level at time molar at 7 h (in vivo [8]; [16]): 59.6 µM; level at time molar at 24 h (in vivo [8]; [16]): 25.4 µM; EC50 [1]: 1.9 nM; intact compound, % of initial levels ([9]; 25 μM): fully preserved; Percent Intact Peptide ([9]; 1 h): 108.538% and 105.019% and 100.148% and 101.614%; Percent Intact Peptide ([9]; 12 h): 100.519% and 101.487% and 97.3524% and 61.8294% and 103.036% and 91.5274% and 92.844% and 95.276%; clinical observations [10]: no adverse clinical findings; nasal tissue exposure relative to IC90 value [10]: 100-2000 x IC90; nasal tissue levels relative to infectivity assay IC90 [10]: over 100; peak lung tissue concentration relative to nasal tissue ([10]; pH 6.5): approximately 1/10th; plasma exposure relative to nasal tissue ([10]; pH 6.5): approximately 1/1000th; nasal tissue level by 48 h ([10]; pH 7.2): 1 µM; peak lung level ([10]; pH 7.2): 1 µM; improvement of antiviral activity compared to the unstapled peptide [11]: 24 to 39 fold; fold by which RQ-01 outperformed SARSHRC-PEG4-chol [12]: 23 fold; OP swab titers (Day 3) [13]: A subset of hamsters from both RQ-01 treated cohorts exhibited reduced OP swab titers; lung viral titers [13]: suppression of lung viral titers; transmission to sentinel hamsters [13]: did not prevent transmission; weight loss of sentinels [13]: protection from weight loss

Which cytotoxicity (HeLa cells) does the source give for CC[C@H](C)[C@H](NC(=O)[C@H](C)NC(=O)[C@H](CS)NC(=O)[C@H](CC(=O)O)NC(=O)[C@@H]1CCCN1C(=O)CNC(=O)[C@H](CC(C)C)NC(=O)[C@@H](NC(=O)[C@H](Cc1c[nH]cn1)NC(=O)[C@H](CS)NC(=O)[C@@H](NC(C)=O)[C@@H](C)O)[C@@H](C)CC)C(=O)N[C@@H](CCC(=O)O)C(=O)N1CCC[C@H]1C(=O)N[C@@H](Cc1c[nH]cn1)C(=O)N[C@@H](CC(=O)O)C(=O)N[C@@H](Cc1c[nH]c2ccccc12)C(=O)N[C@H](C(=O)N[C@]1(C)CCCCCCC=CCCC[C@@](C)(C(=O)N[C@@H](CCC(N)=O)C(=O)N[C@H](C(=O)N[C@H](C(=O)N[C@@H](Cc2c[nH]cn2)C(=O)N[C@@H](CC(=O)O)C(=O)N[C@@H](Cc2ccccc2)C(=O)N[C@H](C(=O)N[C@@H](CCCCNC(=O)CCOCCOCCOCCOCCNC(=O)CS[C@H]2CC[C@@]3(C)C(=CC[C@H]4[C@@H]5CC[C@H]([C@H](C)CCCC(C)C)[C@@]5(C)CC[C@@H]43)C2)C(N)=O)C(C)C)[C@@H](C)CC)[C@@H](C)CC)NC(=O)[C@H]([C@@H](C)CC)NC(=O)[C@H](CCCCN)NC(=O)[C@H](CC(=O)O)NC(=O)[C@H]([C@@H](C)O)NC(=O)[C@H]([C@@H](C)CC)NC(=O)[C@H](CCC(=O)O)NC1=O)[C@@H](C)O [SLI-EBOV] (Ac-TCHILGPDCAIEPHDWT[R8]EITDKI[S5]QIIHDFVK([PEG4-Acetyl(2-S-cholesteryl)])-NH2; staple 18-25) here?
Its cytotoxicity is “no cytotoxicity”.

For CCCC[C@H](NC(=O)[C@H](CO)NC(=O)[C@H](CO)NC(=O)[C@@H](NC(=O)[C@H](CCC(N)=O)NC(=O)[C@H](CO)NC(=O)[C@H](CO)NC(=O)[C@@H](NC(=O)[C@H](CC(=O)O)NC(C)=O)[C@@H](C)CC)[C@@H](C)CC)C(=O)N[C@@H](CC(N)=O)C(=O)N[C@@H](CCC(N)=O)C(=O)N[C@@H](CO)C(=O)N[C@@H](CC(C)C)C(=O)N[C@]1(C)CCCCCCC=CCCC[C@@](C)(C(=O)N[C@@H](CCC(=O)O)C(=O)N[C@@H](C)C(=O)N[C@@H](CCC(N)=O)C(=O)N[C@@H](CCCCN)C(=O)N[C@H](C(=O)N[C@@H](CC(C)C)C(=O)N[C@@H](CC(=O)O)C(=O)N[C@H](C(=O)N[C@H](C(=O)N[C@@H](CCCCNC(=O)CCOCCOCCOCCOCCNC(=O)CS[C@H]2CC[C@@]3(C)C(=CC[C@H]4[C@@H]5CC[C@H]([C@H](C)CCCC(C)C)[C@@]5(C)CC[C@@H]43)C2)C(N)=O)C(C)C)[C@@H](C)O)[C@@H](C)CC)NC(=O)[C@H]([C@@H](C)CC)NC(=O)[C@H](Cc2ccc(O)cc2)NC(=O)[C@H](CC(=O)O)NC(=O)[C@H](CCCCN)NC(=O)[C@H](CO)NC(=O)[C@H](CCC(N)=O)NC1=O [SLI-NIPV] (Ac-DISSQISS[Nle]NQSL[R8]QSKDYI[S5]EAQKILDTVK([PEG4-Acetyl(2-S-cholesteryl)])-NH2; staple 14-21), which cytotoxicity (293T cells) is on record?
The cytotoxicity was “no cytotoxicity”.
